Tests used:
[1] = in vitro; Miyata T., J. Am. Soc. Nephrol. 11: 1719-1725, 2000; cited from earlier work
[2] = Incubation of sera with thiol compounds, production of AGE; details: sera from a normal person and patients with diabetes mellitus; a long period was required
From the text: As described above, a decrease in concentration of redox coenzymes, such as GSH and NAD (P), is suspected to be the cause of AGE formation because of a decreased elimination of carbonyl compounds. […] Based on this theory, the present inventors tried to directly administer thiol compounds, such as GSH and cystein.

[3] = 400 μM methylglyoxal, 0-8 mM glutathione, PBS(-) pH7.4, 37° C., 0-24 hours; FIG. 1
Procedure: The solutions were incubated at 37° C. Samples were taken after 0, 2, 4, 8, and 24 hours; and 40 μl of 2 M perchlorate, 40 μl of 1% o-phenylenediamine, and 100 μl of 200 μM glyoxal were added to 100 μl of each sample. The mixtures were stirred, and then incubated at 25° C. for one hour.

[4] = Dicarbonyl compound elimination in solutions separately containing each dicarbonyl compound; type: biochemical; details: 100 μM dicarbonyl, glutathione 0-10 mM, glyoxalase I 0-10 unit/ml, 37° C., 1 hour; FIG. 5
Procedure: PBS(-) solutions (pH 7.4) were prepared, whose glyoxal concentration were 100 μM, glutathione concentration 0, 0.1, 1, or 10 mM, and glyoxalase I concentration 0, 0.01, 0.1, 1, or 10 unit/ml. […] The same method was used for methylglyoxal and 3-deoxyglucosone in place of glyoxal.

[5] = Dicarbonyl compound elimination in mixed solutions containing three dicarbonyl compounds; type: biochemical; details: FIG. 4
Procedure: PBS(-) solutions (pH7. 4) were prepared, whose concentrations of glyoxal, methylglyoxal, and 3-deoxyglucosone were all 200 μM, glutathione concentration were 0, 0.5, 1, or 5 mM, and glyoxalase I concentration were 0, 0.05, 0.1, 0.5, 1, or 2 unit/ml.

[6] = Elimination of methylglyoxal from methylglyoxal solutions in the presence of glutathione and glyoxalase I; type: biochemical; details: 400 μM methylglyoxal, 4 mM glutathione, glyoxalase I 8-80 unit/ml, 37° C., 1 hour; FIG. 2
Procedure: PBS(-) solutions were prepared, whose methylglyoxal concentration were 400 μM, glutathione concentration 4 mM, and the concentration of an enzyme having glyoxalase I activity were 8, 16, 40, and 80 unit/ml, respectively. The solutions were incubated at 37° C. A commercially available enzyme (Sigma) derived from yeast was used as the glyoxalase I. Samples were taken after 1 hour, and then methylglyoxal was quantified by the same method as in Example 1.

Row | Molecule | trapping of carbonyl compounds methylglyoxal and glyoxal [1] | production of AGE in sera [2] | also measured
1 | N=C(N)NN [aminoguanidine] | efficiently trap carbonyl compounds | – | –
2 | CCCCNC(=N)NC(=N)N [buformin] | efficiently trap carbonyl compounds | – | –
3 | N[C@@H](CS)C(=O)O [cystein, reference compound] | – | suppressed the production of AGE | –
4 | N[C@@H](CCC(=O)N[C@@H](CS)C(=O)NCC(=O)O)C(=O)O [glutathione] | – | suppressed the production of AGE | methylglyoxal trapping (residual rate of methylglyoxal) [3]: trapped by glutathione depending on the concentration of glutathione and incubation time
5 | CN(C)C(=N)N=C(N)N [metformin] | efficiently trap carbonyl compounds | – | –
6 | glyoxalase I: commercially available enzyme (Sigma) derived from yeast, lactoyl GSH lyase (EC. 4.4.1.5) (protein, UniProt P50107 1-326, looked up) Glyoxalase I: MSTDSTRYPIQIEKASNDPTLLLNHTCLRVKDPARTVKFYTEHFGMKLLSRKDFEEAKFSLYFLSFPKDDIPKNKNGEPDVFSAHGVLELTHNWGTEKNPDYKINNGNEEPHRGFGHICFSVSDINKTCEELESQGVKFKKRLSEGRQKDIAFALGPDGYWIELITYSREGQEYPKGSVGNKFNHTMIRIKNPTRSLEFYQNVLGMKLLRTSEHESAKFTLYFLGYGVPKTDSVFSCESVLELTHNWGTENDPNFHYHNGNSEPQGYGHICISCDDAGALCKEIEVKYGDKIQWSPKFNQGRMKNIAFLKDPDGYSIEVVPHGLIA | – | – | concentrations of dicarbonyl compounds in solutions containing one dicarbonyl compound [4]: concentrations of dicarbonyl compounds decreased; concentrations of dicarbonyl compounds in mixed solution ([5]; 200 μM each dicarbonyl, glutathione 0-5 mM, glyoxalase I 0-2 unit/ml, 37° C., 1 hour): Decrease in the concentrations of dicarbonyl compounds was observed; elimination of 3-deoxyglucosone in the mixed solution of three dicarbonyl compounds ([5]; coexistence of methylglyoxal and glyoxal, 200 μM each): decreased; methylglyoxal eliminated [6]: Approximately 99%
